The results in this text go back to PubChem BioAssay (NCI).

Holding throughout (experiment): NCI tumour cell line growth inhibition, 48 h
In experiment [1] the test system is MOLT-4 leukemia.
Experiment [2] concerns SNB-19 CNS.
Experiment [3] has as its system KM12 colon.
Experiment [4] has as its system HOP-62 NSCLC.
Experiment [5] concerns IGROV1 ovarian.
Experiment [6] concerns NCI-H460 lung.
Experiment [7] concerns A498 renal.
For experiment [8], the system named is OVCAR-8 ovarian.
The test system of experiment [9] is NCI-H522 lung.
The test system of experiment [10] is HT29 colon.

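In this assay, cells in 96-well plates receive the compound at five concentrations for 48 hours. Endpoints are linearly interpolated between the surrounding concentrations. GI50 = concentration required for 50% inhibition of growth. TGI denotes the concentration required for complete inhibition of growth.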

For the compound `COCCOCCOCc1n(Cc2ccc3ccccc3n2)c2ccccc2[n+]1Cc1ccc2ccccc2n1`, the GI50 in [1] was 1880 nM; in [2] it was 444 nM; in experiment [3], 502 nM; in experiment [4], 2440 nM; in experiment [5], 645 nM; in experiment [6], 1870 nM. The GI50 in experiment [7] was 2480 nM; in experiment [8] it was 1270 nM; in [9], 415 nM; in [10] it was 530 nM. Further, the TGI in experiment [1] stood at 13 µM; in experiment [2], 13.5 µM; in experiment [3], 6.13 µM; in experiment [4], 14.3 µM; in experiment [5] it was 11.8 µM; in [6] it was 12.4 µM. Moreover, the TGI in experiment [7] is 7.74 µM; in experiment [8] it was 12.6 µM; in [9] it was 11.1 µM; in [10] it was 10.6 µM.
Consider `COC1CC(N)C(O)C(C)O1` (stereo not given), for which the TGI in [1], in [2], in [3], in experiment [4], in [5] and in experiment [6] was greater than 100 µM throughout. The TGI in [7], in [8], in [9] and in [10] was greater than 100 µM each time.
For the compound `CC1OC(CC(=O)O)CC2=C1C(=O)c1c(O)cccc1C2=O` (stereo not given), the TGI was determined as 0.115 µM in [1]; 2.98 µM in [2]; 3.49 µM in [3]; 2.94 µM in experiment [4]; 0.721 µM in [5]; 3.58 µM in experiment [6]. The TGI was 2.36 µM in experiment [7], 1.1 µM in experiment [8], less than 0.0251 µM in [9] and 0.427 µM in experiment [10].
On to `O=C(CC1C=Cc2ccccc2N1C(=O)c1ccccc1)c1ccccc1` (stereo not given), for which the TGI in [1] was 34.6 µM; in experiment [2], greater than 100 µM; in experiment [3], 61.8 µM; in [4] it was greater than 100 µM; in experiment [5], greater than 100 µM; in experiment [6], greater than 100 µM. The TGI is 93.5 µM in [7], greater than 100 µM in experiment [8], 53.2 µM in [9] and 40.2 µM in [10].
